How the values were obtained:
[1] = tested on: HUVEC-12 endothelial cells; assay: Proliferation of HUVEC-12 endothelial cells (MTT); type: cell-based, Human; settings: HUVEC-12 treated with supernatant of macrophages co-incubated 24 h with compound, 10 μM (s- groups)
Description: The experiment included seven groups. In Group 1, HUVEC-12 endothelial cells (purchased from Shanghai RongChuang Biotech Co., Ltd.) were treated directly with simple DMEM medium (Gibcol, Shanghai) containing 10% FBS ([…], Germany) (control). In Group 2, the endothelial cells were treated with the supernatant obtained 24 h after macrophages were cultured with DMEM medium containing 10% FBS (s-control). […] In Group 5, the endothelial cells cultured with DMEM medium containing 10% FBS were treated directly with Cpd-18 (Salvianolate) (cpd-18, 10 μM). In Group 6, the endothelial cells were treated with the supernatant obtained after macrophages cultured with DMEM medium containing 10% FBS were treated and co-incubated with Cpd-18 (Salvianolate, 10 μM) for 24 h (s-cpd18). In Group 7, the endothelial cells cultured with DMEM medium containing 10% FBS were treated directly with VEGFD (Recombinant Human VEGF165, 10 ng/mL). Human umbilical vein endothelial cells HUVEC-12 in logarithmic growth phase were counted, adjusted to a cell density of 2.5×10^4 cells/mL, and inoculated in 100 μL per well in a 96-well plate. […] Based on the measured absorbance (OD), the HUVEC-12 endothelial cells treated directly with simple DMEM medium (control) were used as a blank control (Group 1), the percentage of cell proliferation in each group was calculated, and compared. […]

[2] = tested on: HUVEC-12 endothelial cells; assay: Tubule formation of HUVEC-12 endothelial cells (Matrigel); type: cell-based, Human
Description: The experiment included seven groups. In Group 1, HUVEC-12 endothelial cells (purchased from Shanghai RongChuang Biotech Co., Ltd.) were treated directly with simple DMEM medium (Gibcol, Shanghai) containing 10% FBS (SERANA, Germany) (control). In Group 2, the endothelial cells were treated with the supernatant obtained 24 h after macrophages were cultured with DMEM medium containing 10% FBS (s-control). In Group 3, the endothelial cells cultured with DMEM medium containing 10% FBS were treated directly with TG-028 (TG-028, 10 μM). In Group 4, the endothelial cells were treated with the supernatant obtained after macrophages cultured with DMEM medium containing 10% FBS were treated and co-incubated with TG-028 for 24 h (s-TG-028, […]). In Group 5, the endothelial cells cultured with DMEM medium containing 10% FBS were treated directly with Cpd-18 (Salvianolate) (cpd-18, 10 μM). In Group 6, the endothelial cells were treated with the supernatant obtained after macrophages cultured with DMEM medium containing 10% FBS were treated and co-incubated with Cpd-18 (Salvianolate, 10 μM) for 24 h (s-cpd18). In Group 7, the endothelial cells cultured with DMEM medium containing 10% FBS were treated directly with VEGFD (Recombinant Human VEGF165, 10 ng/mL).
A 96-well plate and sterile yellow pipette tip were stored overnight in a refrigerator at −20° C. The packed Matrigel was thawed overnight in a refrigerator at 4° C. before the experiment. On the following day, the Matrigel thawed was centrifuged for a few minutes. 60 μL per well of the pre-cooled Matrigel was added to a 96-well plate in an ice bath on a ultra-clean bench, and then allowed to stand in an incubator for 1 h. After Matrigel was solidified, HUVEC-12 cells in logarithmic growth phase were taken and adjusted for the cell density. The cells were well mixed with each group of medium at a density of 5×10^4 cells/well and inoculated into a 96-well plate. […] The tube-like structure was analyzed by ImageJ image-analysis software, and the tube formation ability was evaluated using number of master junction as a quantitative index.

## COc1ccc(CCCCO[C@@H]2O[C@H](CO)[C@@H](O)[C@H](O)[C@H]2O)cc1 [TG-028]
[1]
  promotion of proliferation of endothelial cells (in words): more potent promotion on the proliferation of endothelial cells than the direct treatment of endothelial cells with VEGF
[2]; HUVEC-12 treated with supernatant of macrophages co-incubated 24 h with compound, 10 μM (s- groups)
  effect on tube formation of endothelial cells (in words): comparable effect on the tube formation of endothelial cells as VEGF
[2]; direct treatment of HUVEC-12, 3 h, compounds 10 μM, VEGF165 10 ng/mL, vs control medium
  effect on tube formation of endothelial cells (in words): significant effect on the tube formation of endothelial cells

Source: patent US11325937B2, “Glycoside compound and preparation method therefor, composition, application, and intermediate” (SHANGHAI HUTCHISON PHARMACEUTICALS LIMITED, priority 2018, dated 2022)
